Measurements reported in ChEMBL document CHEMBL1129407, “Synthesis and evaluation of heterocyclic carboxamides as potential antipsychotic agents” (J Med Chem, 1996).

What was measured:
[1] = biological target: T1, 5-hydroxytryptamine receptor 1A (Mus musculus, UniProt Q64264); assay: Inhibitory activity against serotonin 5-hydroxytryptamine 1A receptor from mice.
T1 sequence (Q64264 whole entry): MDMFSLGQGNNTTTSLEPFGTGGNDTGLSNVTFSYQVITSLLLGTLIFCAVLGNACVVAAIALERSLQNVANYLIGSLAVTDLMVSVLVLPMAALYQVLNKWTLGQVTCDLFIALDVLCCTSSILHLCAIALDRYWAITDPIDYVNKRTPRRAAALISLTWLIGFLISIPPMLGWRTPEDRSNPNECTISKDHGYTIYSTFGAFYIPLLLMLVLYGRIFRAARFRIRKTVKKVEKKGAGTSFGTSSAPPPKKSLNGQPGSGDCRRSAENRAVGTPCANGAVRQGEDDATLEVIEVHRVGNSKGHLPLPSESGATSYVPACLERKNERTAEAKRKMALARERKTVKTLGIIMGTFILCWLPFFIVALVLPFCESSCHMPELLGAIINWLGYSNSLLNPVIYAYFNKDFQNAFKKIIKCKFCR

D(2) dopamine receptor [2] = biological target: T2, D(2) dopamine receptor (Mus musculus, UniProt P61168); assay: Inhibition of mouse Dopamine receptor D2
[3] = biological target: Serotonin 2 (5-HT2) receptor (Mus musculus, UniProt Q02152+P34968+P35363); assay: Inhibitory activity against serotonin 5-hydroxytryptamine 2 receptor from mice.; format: protein assay
Mus musculus [4] = assay: Compound was tested for antagonist activity against apomorphine-induced mouse climbing(per orally - po). using in vivo method; format: functional
Mus musculus [5] = assay: Compound was tested for antagonist activity against apomorphine-induced mouse climbing(intraperitoneally - ip). using in vivo method; format: functional
Mus musculus [6] = assay: Compound was tested for antagonist activity against apomorphine-induced mouse climbing (ip). using in vivo method; format: functional
D(2) dopamine receptor [7] = biological target: T2, D(2) dopamine receptor; assay: Inhibitory activity against Dopamine receptor D2 from mice
Mus musculus [8] = assay: Compound was tested for antagonist activity against apomorphine-induced mouse climbing (po). using in vivo method; format: functional
Mus musculus [9] = species: Mus musculus; assay: Compound was tested for induction of catalepsy in mouse; format: functional
[10] = Ratio of ED50 for antagonism of apomorphine induced stereotypy to ED50 for antagonism of apomorphine-induced climbing.; format: functional
[11] = Ratio of ED50 for induction of catalepsy to ED50 for antagonism of apomorphine-induced climbing.; format: functional
Mus musculus [12] = assay: Compound was tested for antagonist activity against apomorphine-induced mouse stereotypy (po) using in vivo method; format: functional
Mus musculus [13] = assay: Compound was tested for antagonist activity against apomorphine-induced mouse climbing (po) using in vivo method; format: functional
Mus musculus [14] = assay: Compound was tested for antagonist activity against apomorphine-induced mouse climbing (ip) using in vivo method; format: functional
Mus musculus [15] = species: Mus musculus; assay: Compound was tested for induction of catalepsy in mouse.; format: functional
Mus musculus [16] = assay: Compound was tested for antagonist activity against apomorphine-induced mouse stereotypy(per orally - po). using in vivo method; format: functional

T2 sequence (P61168 whole entry): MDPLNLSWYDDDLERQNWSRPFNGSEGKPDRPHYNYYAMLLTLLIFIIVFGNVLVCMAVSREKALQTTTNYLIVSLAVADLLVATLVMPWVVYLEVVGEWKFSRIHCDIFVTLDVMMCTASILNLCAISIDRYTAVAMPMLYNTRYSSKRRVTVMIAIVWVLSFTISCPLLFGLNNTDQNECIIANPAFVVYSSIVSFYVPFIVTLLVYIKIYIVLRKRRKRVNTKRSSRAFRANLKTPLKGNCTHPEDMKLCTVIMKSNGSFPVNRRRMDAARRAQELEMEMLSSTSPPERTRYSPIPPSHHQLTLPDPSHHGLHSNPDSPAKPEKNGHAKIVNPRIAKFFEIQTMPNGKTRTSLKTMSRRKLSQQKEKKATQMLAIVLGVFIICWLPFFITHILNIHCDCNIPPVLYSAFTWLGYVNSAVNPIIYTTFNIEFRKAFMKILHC

SMILES	IC50 [1]	IC50 (D(2) dopamine receptor [2])	IC50 [3]	IC50 (D(2) dopamine receptor [7])	ED50 (Mus musculus [6])	ED50 (Mus musculus [8])	also measured
O=C(NCCCCN1CCN(c2nsc3ccccc23)CC1)c1cccc2cc[nH]c12	2.7 nM	28 nM	1.2 nM				
Nc1ccncc1C(=O)NCCCCN1CCN(c2nsc3ccccc23)CC1	5.1 nM		3.1 nM	4.7 nM	> 25 mg/kg		
Nc1cnccc1C(=O)NCCCCN1CCN(c2nsc3ccccc23)CC1	7 nM		1.5 nM				
O=C(NCCCCN1CCN(c2nsc3ccccc23)CC1)c1cccc2c1NCCC2	1.9 nM	28 nM	2.4 nM		< 25 mg/kg		
O=C(NCCCCN1CCN(c2nsc3ccccc23)CC1)c1cccc2[nH]cnc12	4.2 nM		0.29 nM	7.6 nM	> 25 mg/kg		
O=C(NCCCCN1CCN(c2nsc3ccccc23)CC1)c1cccc2c1NCC2	4.3 nM	34 nM	3.4 nM		2.6 mg/kg	18.6 mg/kg	
Nc1sccc1C(=O)NCCCCN1CCN(c2nsc3ccccc23)CC1	2 nM		2.3 nM	11 nM	4.8 mg/kg	> 25 mg/kg	
Nc1ccsc1C(=O)NCCCCN1CCN(c2nsc3ccccc23)CC1	1.3 nM	9.6 nM	1.3 nM		0.9 mg/kg	9.7 mg/kg	ED50 (Mus musculus [9]): 69.3 mg/kg; Ratio [10]: 6; Ratio [11]: 7; ED50 (Mus musculus [12]): 57.9 mg/kg
Nc1cscc1C(=O)NCCCCN1CCN(c2nsc3ccccc23)CC1	3.5 nM	6 nM	2.5 nM		1.7 mg/kg	12.6 mg/kg	
Cc1nc2n(c(=O)c1CCN1CCC(c3noc4cc(F)ccc34)CC1)CCCC2 [RISPERIDONE]	430 nM	23 nM					ED50 (Mus musculus [15]): 1.4 mg/kg; ED50 (Mus musculus [4]): 0.9 mg/kg; ED50 (Mus musculus [5]): 0.3 mg/kg; ED50 (Mus musculus [16]): 3.2 mg/kg
Nc1c(C(=O)NCCCCN2CCN(c3nsc4ccccc34)CC2)sc2ccccc12	5.8 nM	5.8 nM	0.85 nM		2.2 mg/kg	51.6 mg/kg	

More lines, main results first:

IC50 [1]	IC50 (D(2) dopamine receptor [2])	IC50 [3]	IC50 (D(2) dopamine receptor [7])	SMILES	ED50 (Mus musculus [6])	ED50 (Mus musculus [8])	also measured
2.8 nM	24 nM	1.5 nM		O=C(NCCCCN1CCN(c2nsc3ccccc23)CC1)c1ccccn1			ED50 (Mus musculus [4]): 16.6 mg/kg; ED50 (Mus musculus [5]): < 25 mg/kg
4.3 nM		2.4 nM	14 nM	O=C(NCCCCN1CCN(c2nsc3ccccc23)CC1)c1cccc2cccnc12	< 25 mg/kg	54.4 mg/kg	
5.8 nM		1.3 nM	14 nM	O=C(NCCCCN1CCN(c2nsc3ccccc23)CC1)c1c[nH]c2ccccc12	> 25 mg/kg		
6.6 nM		2.3 nM	25 nM	O=C(NCCCCN1CCN(c2nsc3ccccc23)CC1)c1ccncc1			ED50 (Mus musculus [13]): 34 mg/kg; ED50 (Mus musculus [14]): 4.6 mg/kg
4.9 nM	47 nM	2.9 nM		O=C(NCCCCN1CCN(c2nsc3ccccc23)CC1)c1cccnc1	5.2 mg/kg	15.5 mg/kg	
3.8 nM		8.3 nM		Nc1cccnc1C(=O)NCCCCN1CCN(c2nsc3ccccc23)CC1			
3.3 nM	7.8 nM	1.5 nM		Nc1ncccc1C(=O)NCCCCN1CCN(c2nsc3ccccc23)CC1	6.4 mg/kg	17.1 mg/kg	
3.6 nM	2.2 nM	0.35 nM		O=C(NCCCCN1CCN(c2nsc3ccccc23)CC1)c1[nH]nc2ccccc12	< 25 mg/kg	31.8 mg/kg	
